Assay results as given in PubChem BioAssay (NCI).
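Grown in 96-well plates, cells were treated for 48 hours with each compound at five concentrations. Insufficient inhibition: endpoint recorded as highest concentration tested. TGI marks complete inhibition of growth.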

Key:
Assay in all cases: NCI tumour cell line growth inhibition, 48 h
A549 NSCLC = test system: A549 NSCLC
BT-549 breast = test system: BT-549 breast
HL-60(TB) leukemia = test system: HL-60(TB) leukemia
MDA-N = test system: MDA-N
MOLT-4 leukemia = test system: MOLT-4 leukemia
NCI-H226 lung = test system: NCI-H226 lung
NCI-H460 lung = test system: NCI-H460 lung
SF-295 CNS = test system: SF-295 CNS
SK-MEL-2 melanoma = test system: SK-MEL-2 melanoma
T-47D breast = test system: T-47D breast

Compound	TGI (A549 NSCLC) [µM]	TGI (BT-549 breast) [µM]	TGI (HL-60(TB) leukemia) [µM]	TGI (MDA-N) [µM]	TGI (MOLT-4 leukemia) [µM]	TGI (NCI-H226 lung) [µM]	TGI (NCI-H460 lung) [µM]	TGI (SF-295 CNS) [µM]	TGI (SK-MEL-2 melanoma) [µM]	TGI (T-47D breast) [µM]
CCCN1C(=O)/C(=C\c2ccc(OC)c(OC)c2)SC1=Nc1ccccc1	> 100	> 100	> 100	> 100	> 100	> 100	> 100	> 100	> 100	> 100
O=C1CCCCC/C1=C\c1ccccc1	> 100	> 100	> 100	> 100	> 100	> 100	> 100	> 100	> 100	> 100
COc1cc2ccc1OCc1cccc(n1)COc1ccc(cc1OC)C=NCCNCCNCCN=C2	> 100	> 100	> 100	> 100	> 100	> 100	> 100		> 100	> 100
COC(=O)[C@@H]1CC(C(CN)c2cn(C(=O)OC(C)(C)C)c3ccccc23)C(=O)N1C(=O)OC(C)(C)C (some centres not stated)	> 100	> 100	59.2	69.6	37.6	97.8	56	45.2	55.3	> 100
N#CCN(CC#N)C1CC=CCC1N(CC#N)CC#N (configuration not stated)	> 100	> 100	> 100	> 100	> 100	> 100	> 100	> 100	> 100	> 100
Nc1ccc(-c2nc3ccccc3s2)cc1C#Cc1ccccc1	49	34.7	62.1	35.8	> 100	49.2	35.1	47.1		> 100
CC[P+]1(c2ccccc2)[C@@H](C)CC[C@@H]1C	> 100	> 100	> 100	> 100	> 100	> 100	> 100	> 100	> 100	> 100
N#C/C(N)=C(\C#N)N=CNc1ccc(N)cc1	> 100	> 100	> 100	> 100	> 100	> 100	> 100	> 100	> 100	> 100
CCOC(=O)C(C)c1nc2ccc(C(F)(F)F)cc2[nH]c1=O (configuration not stated)	> 100	> 100	> 100	> 100	> 100	> 100	> 100	> 100	> 100	69.9
CCOC(=O)c1cc(C2CCN(c3ccccc3)C2=O)c(C(=O)/C=C(/C)N)[nH]1 (configuration not stated)	> 100	> 100	> 100	> 100	> 100	80.4	> 100	46.7	> 100	> 100
C=CCOc1ccccc1C1(O)c2ccccc2C2=NCCCN21 (configuration not stated)	> 100	> 100	96.8	> 100	> 100	76.4	> 100	71.6		> 100
Cc1cccc2c(N)c3cccc(C(=O)NCC[N+]4(Cc5ccc([N+](=O)[O-])cc5)CCOCC4)c3nc12	> 100	> 100	58.1	> 100	> 69.2	> 100	> 62.5	> 100	> 100	98.3
Nc1c2c(nc3ccccc13)-c1ccccc1NCCC2	> 100	> 100	47.5	39	> 100	> 100	38	50.8	37.1	77.9
O=C(O)c1ccc(Nc2nc3cc(C(F)(F)F)ccc3n3cccc23)cc1	> 100	> 100	> 100	> 100	67.7		38.7	> 100	> 100	70.4
CN(C(=O)Cc1cc(Cl)c(Cl)cc1NC(=O)CN)[C@H]1CCCC[C@@H]1N1CCCC1	> 100	> 100	52.7	31.7	> 100		> 100	77.1	35.7	98.4
Cc1cccc(C)c1Nc1nc(C)c(C(=O)CC(=O)C(=O)Nc2c(C(C)C)cccc2C(C)C)s1	> 100	> 100	> 100	> 100	> 100	> 100	> 100	> 100	> 100	> 100
CC1(C)OC[C@@H](O)[C@H](Br)CO1		> 100	> 100	> 100	> 100	> 100	> 100	> 100	> 100	> 100
CC(C)(C)C1=CC(=C2C=Cc3ccccc3O2)C=C(C(C)(C)C)C1=O	26.2	22.1	5.92	7.39	> 21.3	25.6	4.04	18.9	4.71	9.97
NC(=O)c1c(NC=O)ncn1C1OCC(O)C(O)C1O (configuration not stated)	> 100	> 100	> 100	> 100	> 100	> 100	> 100	> 100	> 100	> 100
COC(=O)/C=C(\S/C=C(/c1ccccc1)N1CCn2c(C(=O)c3ccccc3)c(C(=O)OC)c(C(=O)OC)c21)C(=O)OC	> 10	> 10	2.6	> 10	5.64	> 10	> 10	> 10	> 10	5.91
CC(C)/C(=N\[N+](C)(C)C)c1ccccc1	> 100	> 100	> 100	> 100	> 100	> 100	> 100	> 100	> 100	> 100
COc1c2c(cc3c1C1(O)Cc4ccc5c(c4C[N+]1(C)CC3)OCO5)OCO2 (configuration not stated)	> 100	> 100	> 100	> 100	> 100	> 100	> 100	> 100	> 100	> 100

Compound	TGI (A549 NSCLC) [µM]	TGI (BT-549 breast) [µM]	TGI (HL-60(TB) leukemia) [µM]	TGI (MDA-N) [µM]	TGI (MOLT-4 leukemia) [µM]	TGI (NCI-H226 lung) [µM]	TGI (NCI-H460 lung) [µM]	TGI (SF-295 CNS) [µM]	TGI (SK-MEL-2 melanoma) [µM]	TGI (T-47D breast) [µM]
COC(=O)/C=C\C(C#N)(C#N)N=Cc1sccc1C	29.6	11.1	4.45	15.1		13.2	31.4	35.1	30.2	5.92
CCOC(=O)C(O)(C(=O)OCC)c1cc(C(C)(C)C)c(O)c(C(C)(C)C)c1	> 100	> 100	98.2	> 100	> 100	> 100		52.5	> 100	> 100
CSc1c(CC(=O)Nc2ccc(Cl)cc2)n(Cc2ccccc2)c2ccccc12	> 100	46.9	> 100	> 100	> 100	71.8	> 100	> 100	51.3	> 100
O=C(NNS(=O)(=O)c1ccccc1)c1cccnc1	> 100	> 100	> 100	> 100	> 100	> 100	> 100	> 100	> 100	> 100
CCn1c2ccccc2c2ccc(C3C(C(=O)OC)=C(C)NC(C)=C3C(=O)OC)cc21	> 100	> 100	> 100	> 100	> 100	> 100	> 100	> 100		> 100
COc1cccc2cc(C(C)=O)c(=O)oc12	> 100	> 100	> 100	> 100	> 100	> 100	> 100	> 100	> 100	> 100
O=C(Nc1cccc2ccccc12)c1ccccc1	> 100	> 100	> 100	> 100		> 100	> 100	> 100	> 100	81.6
Cc1ccc(O)c(C2=CC(c3cccc(Br)c3)SC(N)=N2)c1 (configuration not stated)	88.3	83.6	75.1	50.1	63.4	71.5	49.8	42.2	39.4	87.9
CN1C(=O)CC2CCC(=O)N2c2cccnc21 (configuration not stated)	> 100	> 100	> 100	> 100		> 100	> 100	> 100	> 100	> 100
CC(=O)C(=[N+]=[N-])C(=O)N(C)CCC#N	> 10	> 10	> 10	> 10	> 10	> 10	> 10	> 10	> 10	> 10
CC1CN=C(c2cccc(-c3nc(-c4cccc(C5=NCC(C)N5)c4)nc(N(C)C)n3)c2)N1 (configuration not stated)	9.27	13.9	4.81	4.08	2.7	6.47	4.38	14.3	4.64	15.1
CC/C=C/C[C@H](O)[C@H]1C[C@H]2O[C@H](CC(=O)OC)C[C@H]2O1	> 100	> 100	> 100	> 100	> 100	> 100	> 100	> 100	> 100	> 100
C=CCc1cc(C(Cc2ccccc2)NC(C)C)cc(OCc2ccccc2)c1OCc1ccccc1 (configuration not stated)	30.5	31.4	34.7	25.8	26.7	36.2	28.5	31.6	33.4	29.2
CC(C)(C)OC(=O)CN1CCN(CC(=O)N2CCN(C(=O)OCc3ccccc3)CC2)CCN(CC(=O)OC(C)(C)C)CCN(CC(=O)N2CCN(C(=O)OCc3ccccc3)CC2)CC1	16.3	14.5	0.525	7.65	5.05	22.8	6.98	13.8	5.54	18.8
O=S(=O)(/N=C(\NO)Nc1ccc(Cl)cc1)c1ccccc1	> 100	33.7	> 33.7	27.7	> 56.6	> 100	> 59.3	> 100	29.6	> 83.3
COc1ccccc1NCc1cccc2c(=O)c3ccc(Cl)cc3oc12	> 100	> 100	64	> 100	> 100	> 100		> 100	> 100	> 100
CCN(CC)CCCNc1[nH]ncc2c(C)c3nc4ccc(OC)cc4c3cc12	2.73	3.19	2.9	1.93	0.0904	1.7	4.66	6.48	3.01	3.36
O=C(Nc1nnc(-c2c(Cl)c(Cl)c(Cl)c(Cl)c2-c2nc3cc(C(=O)c4ccccc4)ccc3[nH]2)o1)c1ccc(Cl)cc1	> 100	> 100	> 100	54.2	> 100	> 100		42.4	> 100	> 100
C=CCCCCOC1C=CC(O)C(CO)O1 (configuration not stated)	> 100	> 100	> 100	> 100	> 100	> 100	> 100	> 100	> 100	> 100
COP(=O)(OC)/C(=C/c1cn(C(c2ccccc2)(c2ccccc2)c2ccccc2)cn1)NC=O	> 100	30.6	> 100	51.4	> 100	98.9	34.9	30.5	34.4	> 100
COc1cc(NC=C2C(=O)OC(C)(C)OC2=O)c(OC)c(C)c1OC	> 100	> 100	> 100	> 100	> 100	> 100	> 100	> 100	> 100	> 100
